Patent US20030008857A1, “Photodynamic therapy (PDT) in combination with factors that bind cell surface apoptosis-inducing receptors” (priority 1999, published 2003)
“Also recorded” adds a separate entry of the source.

Assays:
Type in all cases: cell-based, human
[1] = test system: cytochrome c; assay: Cytochrome c in cytosolic extracts of Jurkat cells (immunoblot)
Experimental: (§1) The human Jurkat T cell line containing a neomycin resistance gene was obtained from Dr. Charles Rudin (University of Chicago). Cells were maintained in RPMI 1640 medium containing 10% heat-inactivated fetal calf serum (FCS) with penicillin (100 U/mL), streptomycin (100 μg/mL), 20 mM HEPES, 2 mM L-glutamine and G418 (1 μg/ml) purchased from Gibco BRL (Burlington, Ontario) in a CO2 incubator at 37° C. To elicit apoptosis with PDT, Jurkat cells were incubated with different amounts of liposomally formulated benzoporphyrin derivative monoacid ring A (BPD-MA, verteporfin, QLT PhotoTherapeutics, Inc., Vancouver, Canada) for one hour at 37° C. under light-protected conditions. The culture medium used for experiments was identical to that used for the passage of the cells except that FCS was used at a concentration of 5%. Experiments were conducted either in 6-well culture plates at 5×10^6 cells in a volume of 4 ml per well or in 96-well microtiter plates at 1×10^5 cells per well at 0.2 ml per well. Cells were irradiated with light of a wavelength of 690 nm delivered at 65-73 mW/sec from light emitting diodes (LED) to achieve a total light dose of 5 J/cm^2. Cells were returned to the incubator until required for analysis.
(§2) FasL and TRAIL as used were recombinant preparations. FasL was obtained from Upstate Biotechnology (Lake Placid NY) and corresponded to amino acids 103-281 of the soluble domain of human FasL. TRAIL was obtained from BIOMOL Research Laboratories (Plymouth Meeting, Pa.) and corresponded to residues 114-281 of the soluble domain of human TRAIL. FasL and TRAIL were usually added immediately following the treatment of cells with PDT, although in one series of experiments these factors were added at 1, 2 or 3 hours post-irradiation.
To obtain cytosolic extracts, cells were treated with 0.6 ml of ice-cold buffer [250 mM sucrose, 20 mM Hepes pH 7.4, 10 mM KCl, 1.5 mM MgCl2, 1 mM EGTA, 1 mM EDTA, 1 mM dithiothreitol, 1 mM PMSF and aprotinin (10 μg/ml)]. Cells were disrupted by 20 strokes with the B pestle of a Kontes™ dounce homogenizer. Supernatant collected following centrifugation at 10000×g was further centrifuged at 100000×g for 1 h at 4° C. in a Beckman Optima™ ultracentrifuge using a TL-100 rotor. (Granville et al., “Rapid cytochrome c release, activation of caspases 3, 6, 7 and 8 followed by Bap31 cleavage in HeLa cells treated with photodynamic therapy”, FEBS Lett. 437, 5-10 (1998)).
To evaluate the activation state of different caspases and the status of other cellular proteins, whole cell lysates were separated by sodium dodecyl sulphate polyacrylamide gel electrophoresis (SDS-PAGE). […]

[2] = test system: caspase-3, -6, -8 and -9 and PARP; assay: Western immunoblot of caspase processing and PARP cleavage in Jurkat cells
Experimental: as §1, §2
Whole cell lysates were prepared by washing 1×10^7 cells per sample twice with ice-cold PBS. Cells were disrupted with 1 mL of lysis buffer [1% Nonidet P-40 detergent (NP-40), 20 mM Tris-HCl, pH 8.0, 137 mM NaCl, 10% glycerol, 1 mM phenylmethylsulfonyl fluoride (PMSF) aprotinln (0.15 U/mL) and 1 mM sodium orthovanadate] for 20 minutes on ice. Lysates were centrifuged for 10 minutes at 15,800×g at 4° C.
To evaluate the activation state of different caspases and the status of other cellular proteins, whole cell lysates were separated by sodium dodecyl sulphate polyacrylamide gel electrophoresis (SDS-PAGE). Specifically, detergent-soluble proteins were separated by SDS-PAGE within 10% gels under reducing conditions as described by Laemmli et al. (“Cleavage of Structural Proteins During the Assembly of the Head of Bacteriophage T4”, Nature, 227, 680-685 (1970)). The proteins were transferred to nitrocellulose membranes at 100 volts for one hour. […]

[3] = test system: Jurkat T cells; assay: DNA fragmentation (sub-diploid DNA) by PI staining and flow cytometry; conditions: for cells exhibiting DNA fragmentation (sub-diploid DNA levels): 690 nm light 5 J/cm^2, analysis 24 hours later
Experimental: as §1, §2
The proportion of cells containing sub-diploid levels of DNA 24 hours following treatment was determined using a propidium iodide (“PI”) fluorescence analysis procedure as described by Telford et al. (“Rapid Quantitation of Apoptosis in Pure and Heterogeneous Cell Populations Using Flow Cytometry” J. Immunol Methods 172:1-6 (1994)) or by Darzynkieicz et al. (“Features of Apoptotic Cells Measured by Flow Cytometry”, Cytometry, 13:795-808 (1992)).
Twenty four hours following PDT, 5×10^5 cells were washed twice with ice-cold PBS and then permeablized and fixed in 80% ethanol at 4° C. for one hour. The cells were again washed in ice-cold PBS and stained with PI (50 μg/mL) in PBS with simultaneous deoxyribose nuclease-free ribonuclease A (5 U/mL) treatment. These samples were analyzed by flow cytometry. The percentage of apoptotic cells was calculated using single color analysis for PI fluorescence with a Coulter XL flow cytometer (Coulter Electronics, Inc., Hialeah, Fla.). […] The degree of separation between the apoptotic population and the G0/G1 peak is readily apparent and the percentage of apoptotic cells is determined from the subsequent histogram.

[4] = FasL 7.5 ng/ml or TRAIL 20 ng/ml, 3 hours

| Substance | cytochrome c in cytosolic extracts, factor alone [1, 4] | cytochrome c in cytosolic extracts, factor with PDT ([1]; PDT in combination with TRAIL 20 ng/ml or FasL 7.5 ng/ml, 3 hours) | caspase processing and PARP degradation compared with PDT or the factor alone ([2]; FasL 7.5 ng/ml or TRAIL 20 ng/ml combined with verteporfin PDT, 3 hours) | processing of caspases and PARP by the factor alone [2, 4] | increase in proportion of cells with sub-diploid DNA versus light-treated control cells ([3]; TRAIL 20 ng/ml added after PDT with verteporfin 2 ng/ml, 5 J/cm^2, 24 hours) | increase in the number of cells displaying DNA fragmentation ([3]; TRAIL 20 ng/ml by itself, 24 hours (FIG. 2)) | proportion of cells with sub-diploid DNA compared with PDT alone ([3]; TRAIL 20 ng/ml or FasL 7.5 ng/ml added after PDT with verteporfin 0.5 and 1 ng/ml) | nature of the combined effect on DNA fragmentation ([3]; TRAIL 20 ng/ml with PDT (verteporfin 2 ng/ml) versus each alone) | cells with induced DNA fragmentation ([3]; TRAIL 1000 ng/ml, within 24 hours) | DNA fragmentation induced by the factor without PDT across addition times ([3]; added at 5 minutes, 1, 2 or 3 hours, FasL 7.5 ng/ml, TRAIL 20 ng/ml, individually or in combination) | change of the combined effect with PDT on DNA fragmentation ([3]; factor added at 3 hours post-PDT (verteporfin 2 ng/ml)) | capacity to accentuate PDT-mediated apoptosis (DNA fragmentation) ([3]; factor added up to 3 hours after PDT (verteporfin 2 ng/ml), FasL 7.5 ng/ml, TRAIL 20 ng/ml) | cytochrome c in cytosolic fractions, immediately versus three hours after photoirradiation ([1]; verteporfin and light 5 J/cm^2) | cytochrome c within the cytosolic fraction ([1]; verteporfin and light 5 J/cm^2, extracts prepared immediately afterward) | caspase processing after PDT alone ([2]; increasing verteporfin concentrations, 5 J/cm^2, 3 hours after irradiation) | caspase-3, -8, -9 and PARP processing after PDT alone ([2]; verteporfin 5 ng/ml, 5 J/cm^2, 3 hours (FIG. 8)) | cells exhibiting DNA fragmentation relative to cells treated with light alone ([3]; verteporfin 2 ng/ml, light 5 J/cm^2, 24 hours) | cells exhibiting DNA fragmentation (sub-diploid DNA levels) ([3]; verteporfin 5 ng/ml) | cells exhibiting DNA fragmentation (sub-diploid DNA levels) ([3]; verteporfin 15 ng/ml) |
| --- | --- | --- | --- | --- | --- | --- | --- | --- | --- | --- | --- | --- | --- | --- | --- | --- | --- | --- | --- |
| TRAIL: recombinant, residues 114-281 of the soluble domain of human TRAIL (BIOMOL) | background levels of cytochrome c | readily detectable amounts of cytochrome c | more extensive caspase processing and PARP degradation; also recorded: a higher degree of processing | minor processing; also recorded: little detectable processing | approximately eight-fold | two-fold | a greater proportion of cells contained a sub-diploid level of DNA | greater than additive | approximately 60% | a comparable level of DNA fragmentation | a modest decline | still demonstrable |  |  |  |  |  |  |  |
| benzoporphyrin derivative monoacid ring A [verteporfin, reference compound] |  |  |  |  |  |  |  |  |  |  |  |  | comparable levels of cytochrome c | immediate appearance of cytochrome c | evidence of caspase-3, -6, -8 and -9 processing; also recorded: processing of caspases-3, -6, -8 and -9 | a moderate degree | Five times | a minor proportion of cells | the vast majority of cells |
